Source: US20260015322A1, “DELIVERY OF THERAPEUTIC ALKALOID COMPOUNDS” (priority 2022, published 2026)
Read-outs that look alike come from different tables or passages of the source.

What was measured:
[1] = Plasma Stability Assay (Example A3), rat plasma; type: in vitro ADME; details: 10 μM, 37° C., prodrug remaining
Source text: (§1) The data is represented in the table below.

[2] = in vivo; type: in vivo, male C57BL/6 mice; details: 321 IV 2 mg/kg, mice
Protocol: Total fifteen male mice were used in this study with n=3 mice/time point with sparse sampling study design. Animals were administered through intravenous route with solution formulation of 321 at 2 mg/kg dose.
The extraction procedure for plasma/brain samples and the spiked plasma/brain calibration standards were identical (PMSF Stabilized Plasma and Brain used for Preparation of calibration standards): A 20 μL of study sample plasma/brain or spiked plasma/brain calibration standard was added to individual pre-labeled micro-centrifuge tubes followed by 200 μL of internal standard prepared in acetonitrile (Rosuvastatin, 50 ng/mL) was added except for blank, where 200 μL of acetonitrile was added. Samples were vortexed for 5 minutes. Samples were centrifuged for 10 minutes at a speed of 4000 rpm at 4° C. Following centrifugation, 200 μL of clear supernatant was transferred in 96 well plates and analyzed using LC-MS/MS.
Brain samples were diluted (1-part of tissue: 2-part of buffer) and homogenized. The homogenate was submitted for bioanalysis and the concentrations (ng/mL) received were corrected with dilution factor (3×) and the final reported concentrations were represented in ng/g.
The plasma and brain concentration-time data of 321 and 001 were used for the pharmacokinetic analysis.

[3] = Metabolic Stability in Human Hepatocytes; type: in vitro ADME; details: cryopreserved human hepatocytes, 5×10^5 viable cells/mL, 37° C.
Protocol: A 2.5 uL aliquot of 100 μM test compound was incubated with 247.5 uL of cryopreserved hepatocytes suspended in serum-free incubation medium at 5×10^5 viable cells/mL. The mixture was incubated at 37° C. and shaken at 500 rpm for the designated time points (0.5, 15, 30, 60, 90, or 120 min). At each time point, 25 μL aliquot of incubation mixture was transferred to 125 μL of cold acetonitrile containing internal standard, followed by centrifugation for 30 min at 3,220 g. 100 μL of supernatant was mixed with 100 μL of distilled water for analysis by LC-MS/MS. Peak areas were determined from extracted ion chromatograms and in vitro half-life (t1/2) was determined from the concentration vs time regression slope, in vitro t1/2=0.693/k. Conversion of the in vitro t1/2 (in min) into the in vitro intrinsic clearance (in vitro CLint, in μL/min/10^6 cells) is done using: in vitro CLint=kV/N.

[4] = Hydrolysis Assay - Condition 1 (SGF); type: physicochemical; details: Condition 1: SGF with pepsin pH 1.5, 37° C., 0.5 mM
Protocol: 50 uL of compound (10 mM) in DMSO was diluted into 950 uL of Simulated Gastric Fluid (SGF) with pepsin (pH 1.5) to a final concentration of 0.5 mM. The hydrolysis kinetics were conducted at 37° C. and measured by LCMS at a certain time interval.
(§2) The corresponding LCMS chromatogram were recorded and the conversions were calculated by integration of each peak.
(§3) • 1) LCMS spectra were obtained using Agilent 1200G1956A or SHIMADZU LCMS-2020. • Standard LCMS conditions were as follows (running time 1.55 minutes): • Acidic condition: Mobile Phase A: 0.0375% TFA in water (v/v). Mobile Phase B: 0.01875% TFA in acetonitrile (v/v); Column: Kinetex EVO C18 30*2.1 mm, 5 μm. • Basic condition: Mobile Phase A: 0.025% NH3·H2O in water (v/v). Mobile Phase B: Acetonitrile; Column: Kinetex EVO C18 2.1×30 mm, 5 μm. • 2) Conversion (%)=peak area 1/(peak area 1+peak area 2)*100%, peak area 1 is the integration of hydrolyzed product, peak area 2 is the integration of starting material.

[5] = Plasma Stability Assay (Example A2), mouse plasma; type: in vitro ADME; details: Mouse Plasma, 37° C., prodrug remaining
Protocol: (§4) Each test was carried out in duplicate for each time point; 0 min, 15 min, 30 min, 60 min, 120, 240 min. […]

[6] = Plasma Stability Assay (Example A2), human plasma; type: in vitro ADME; details: 37° C., prodrug remaining
Protocol: as §4

[7] = Plasma Stability Assay (Example A3), human plasma; type: in vitro ADME; details: 10 μM, 37° C., prodrug remaining
Source text: as §1

[8] = Hydrolysis Assay - Condition 2 (DI Water); type: physicochemical; details: 25° C., 0.5 mM
Protocol: 50 uL of compound (10 mM) in DMSO was diluted into 950 uL of DI water to a final concentration of 0.5 mM. The hydrolysis kinetics were conducted at 25° C. and measured by LCMS at a certain time interval.
as §2, §3

[9] = male, C57BL/6, mouse, in vivo, 321, read-out: Brain concentrations (mean)
[10] = male, C57BL/6, mouse, in vivo, 321, read-out: Plasma concentrations (mean)

## COc1ccc([C@@]23CCC(OP(=O)(OC(C)C)OC(C)C)=C[C@@H]2N(C)CC3)cc1OC [Compound 321, [(3aS,7aS)-3a-(3,4-dimethoxyphenyl)-1-methyl-3,4,5,7a-tetrahydro-2H-indol-6-yl]diisopropyl phosphate]
[1]; 0 min
  Prodrug (%): 100.0%
[1]; 10 min
  Prodrug (%): 74.0%
[1]; 30 min
  Prodrug (%): 69.8%
[1]; 60 min
  Prodrug (%): 69.2%
[1]; 120 min
  Prodrug (%): 68.4%
[1]; 240 min
  Prodrug (%): 65.7%
[2]; 321
  Brain-Kp: 0.28
  brain concentrations quantifiable up to: ≤ 0.5 h
  plasma concentrations quantifiable up to: up to 2 h
[2]; 321 in Brain
  T1/2: 6.6 min
  Vss: 10.34 L/kg
[2]; 321 in Brain, marked NR (not reportable)
  CL: NR (1154.07) mL/min/kg
[2]; 321 in Plasma
  AUClast: 97.14 ng·h/mL
  C0 (back extrapolated concentration): 503.64 ng/mL
  CL: 340.73 mL/min/kg
  T1/2: 21.6 min
  Vss: 4.80 L/kg
[2]; [9]
  concentration at 0.08 h: 99.6 ng/g
  concentration at 0.25 h: 37.1 ng/g
  concentration at 0.5 h: 7.89 ng/g
[2]; [10]
  concentration at 0.08 h: 305 ng/mL
  concentration at 0.25 h: 105 ng/mL
  concentration at 0.5 h: 26.2 ng/mL
[2]; male, C57BL/6, mouse, in vivo, 321, 1 h, read-out: Plasma concentrations (mean)
  concentration at 1 h: 8.57 ng/mL
[2]; male, C57BL/6, mouse, in vivo, 321, 2 h, average of two values, read-out: Plasma concentrations (mean)
  concentration at 2 h: 1.38 ng/mL
[3]
  t1/2: 23 min
[4]; 1 min
  Conversion (%): 0%
[4]; 5 min
  Conversion (%): 0%
[4]; 30 min
  Conversion (%): 0%
[4]; 1 h
  Conversion (%): 0%
[4]; 4 h
  Conversion (%): 0%
[4]; 24 h
  Conversion (%): 0%
[5]; 0 min
  Prodrug (%): 100%
[5]; 15 min
  Prodrug (%): 77.3%
[5]; 30 min
  Prodrug (%): 74.5%
[5]; 60 min
  Prodrug (%): 58.4%
[5]; 120 min
  Prodrug (%): 43.1%
[5]; 240 min
  Prodrug (%): 31.7%
[6]; 0 min
  Prodrug (%): 100%
[6]; 15 min
  Prodrug (%): >99%
[6]; 30 min
  Prodrug (%): >99%
[6]; 60 min
  Prodrug (%): >99%
[6]; 120 min
  Prodrug (%): >99%
[6]; 240 min
  Prodrug (%): 78.2%
[7]; 0 min
  Prodrug (%): 100.0%
[7]; 10 min
  Prodrug (%): >99%
[7]; 30 min
  Prodrug (%): >99%
[7]; 60 min
  Prodrug (%): 98.1%
[7]; 120 min
  Prodrug (%): 94.5%
[7]; 240 min
  Prodrug (%): 96.3%
[8]; 1 min
  Conversion (%): 0%
[8]; 5 min
  Conversion (%): 0%
[8]; 30 min
  Conversion (%): 0%
[8]; 1 h
  Conversion (%): 0%
[8]; 4 h
  Conversion (%): 0%
[8]; 24 h
  Conversion (%): 0%
